Reference: patent US20220402882A1, “HERBICIDAL COMPOUNDS” (SYNGENTA CROP PROTECTION AG, priority 2019, published 2022)

Key:
Format in all cases: in vivo
Settings in all cases: evaluated after 13 days
Setaria faberi (SETFA) [1] = assay: Pre-emergence glasshouse herbicide test
Protocol: (§1) Seeds of a variety of test species are sown in standard soil in pots (Lolium perenne (LOLPE), Amaranthus retoflexus (AMARE), Abutilon theophrasti (ABUTH), Setaria faberi (SETFA), Echinochloa crus-galli (ECHCG), Ipomoea hederacea (IPOHE)). After cultivation for one day (pre-emergence) or after 8 days cultivation (post-emergence) under controlled conditions in a glasshouse (at 24/16° C., day/night; 14 hours light; 65% humidity), the plants are sprayed with an aqueous spray solution derived from the formulation of the technical active ingredient in acetone/water (50:50) solution containing 0.5% Tween™ 20 (polyoxyethelyene sorbitan monolaurate, CAS RN 9005-64-5). Compounds are applied at 125 g/h unless otherwise indicated. The test plants are then grown in a glasshouse under controlled conditions in a glasshouse (at 24/16° C., day/night; 14 hours light; 65% humidity) and watered twice daily. After 13 days for pre- and post-emergence, the test is evaluated for the percentage damage caused to the plant. The biological activities are shown in the following table on a five-point scale (5=80-100%; 4=60-79%; 3=40-59%; 2=20-39%; 1=0-19%).

[2] = tested on: Ipomoea hederacea (IPOHE); assay: Pre-emergence glasshouse herbicide test
Protocol: as §1

[3] = tested on: Amaranthus retoflexus (AMARE); assay: Pre-emergence glasshouse herbicide test
Protocol: as §1

[4] = tested on: Abutilon theophrasti (ABUTH); assay: Pre-emergence glasshouse herbicide test
Protocol: as §1

[5] = tested on: Echinochloa crus-galli (ECHCG); assay: Pre-emergence glasshouse herbicide test
Protocol: as §1

Setaria faberi (SETFA) [6] = assay: Post-emergence glasshouse herbicide test
Protocol: as §1

[7] = tested on: Ipomoea hederacea (IPOHE); assay: Post-emergence glasshouse herbicide test
Protocol: as §1

[8] = tested on: Amaranthus retoflexus (AMARE); assay: Post-emergence glasshouse herbicide test
Protocol: as §1

[9] = tested on: Abutilon theophrasti (ABUTH); assay: Post-emergence glasshouse herbicide test
Protocol: as §1

[10] = tested on: Echinochloa crus-galli (ECHCG); assay: Post-emergence glasshouse herbicide test
Protocol: as §1

| SMILES | percentage damage caused to the plant, SETFA (Setaria faberi (SETFA) [1]; 125 g/h) | percentage damage caused to the plant, IPOHE ([2]; 125 g/h) | percentage damage caused to the plant, AMARE ([3]; 125 g/h) | percentage damage caused to the plant, ABUTH ([4]; 125 g/h) | percentage damage caused to the plant, ECHCG ([5]; 125 g/h) | percentage damage caused to the plant, SETFA (Setaria faberi (SETFA) [6]; 125 g/h) | percentage damage caused to the plant, IPOHE ([7]; 125 g/h) | percentage damage caused to the plant, AMARE ([8]; 125 g/h) | percentage damage caused to the plant, ABUTH ([9]; 125 g/h) | percentage damage caused to the plant, ECHCG ([10]; 125 g/h) | percentage damage caused to the plant, SETFA (Setaria faberi (SETFA) [1]; *Applied at 250 g/ha) | percentage damage caused to the plant, IPOHE ([2]; *Applied at 250 g/ha) | percentage damage caused to the plant, AMARE ([3]; *Applied at 250 g/ha) | percentage damage caused to the plant, ABUTH ([4]; *Applied at 250 g/ha) | percentage damage caused to the plant, ECHCG ([5]; *Applied at 250 g/ha) | percentage damage caused to the plant, SETFA (Setaria faberi (SETFA) [6]; *Applied at 250 g/ha) | percentage damage caused to the plant, IPOHE ([7]; *Applied at 250 g/ha) | percentage damage caused to the plant, AMARE ([8]; *Applied at 250 g/ha) | percentage damage caused to the plant, ABUTH ([9]; *Applied at 250 g/ha) | percentage damage caused to the plant, ECHCG ([10]; *Applied at 250 g/ha) |
| --- | --- | --- | --- | --- | --- | --- | --- | --- | --- | --- | --- | --- | --- | --- | --- | --- | --- | --- | --- | --- |
| CCn1nnnc1NC(=O)c1ccc(OCC(F)(F)F)c(S(=O)(=O)CC)c1Cl [Compound 1.065] | 5 (5=80-100%) | 3 (3=40-59%) | 5 (5=80-100%) | 5 (5=80-100%) | 5 (5=80-100%) | 5 (5=80-100%) | 4 (4=60-79%) | 5 (5=80-100%) | 5 (5=80-100%) | 5 (5=80-100%) | – | – | – | – | – | – | – | – | – | – |
| CCCSc1c(OC(F)F)ccc(C(=O)Nc2nnnn2C)c1Cl [Compound 1.066] | 5 (5=80-100%) | 3 (3=40-59%) | 5 (5=80-100%) | 5 (5=80-100%) | 5 (5=80-100%) | 4 (4=60-79%) | 5 (5=80-100%) | 5 (5=80-100%) | 5 (5=80-100%) | 4 (4=60-79%) | – | – | – | – | – | – | – | – | – | – |
| CCCSc1c(OC(F)F)ccc(C(=O)Nc2nnnn2CC)c1Cl [Compound 1.067] | 4 (4=60-79%) | 2 (2=20-39%) | 5 (5=80-100%) | 4 (4=60-79%) | 5 (5=80-100%) | 4 (4=60-79%) | 4 (4=60-79%) | 5 (5=80-100%) | 5 (5=80-100%) | 4 (4=60-79%) | – | – | – | – | – | – | – | – | – | – |
| Cc1nnc(NC(=O)c2ccc(OC(F)(F)F)c(S(C)(=O)=O)c2Cl)o1 [Compound 2.005] | – | – | – | – | – | – | – | – | – | – | 5 (5=80-100%) | 1 (1=0-19%) | 5 (5=80-100%) | 5 (5=80-100%) | 5 (5=80-100%) | 5 (5=80-100%) | 5 (5=80-100%) | 5 (5=80-100%) | 5 (5=80-100%) | 5 (5=80-100%) |
| CSc1c(OC(F)(F)F)ccc(C(=O)Nc2nnc(C)o2)c1Cl [Compound 2.006] | – | – | – | – | – | – | – | – | – | – | 1 (1=0-19%) | 1 (1=0-19%) | 5 (5=80-100%) | 2 (2=20-39%) | 1 (1=0-19%) | 5 (5=80-100%) | 5 (5=80-100%) | 5 (5=80-100%) | 5 (5=80-100%) | 5 (5=80-100%) |
| CCS(=O)(=O)c1cc(C(=O)Nc2nnc(C)o2)ccc1OC(F)(F)F [Compound 2.009] | 5 (5=80-100%) | 2 (2=20-39%) | 5 (5=80-100%) | 5 (5=80-100%) | 5 (5=80-100%) | 5 (5=80-100%) | 4 (4=60-79%) | 5 (5=80-100%) | 4 (4=60-79%) | 5 (5=80-100%) | – | – | – | – | – | – | – | – | – | – |
| CCSc1c(OC(F)(F)F)ccc(C(=O)Nc2nnc(C)o2)c1Cl [Compound 2.010] | 5 (5=80-100%) | 1 (1=0-19%) | 5 (5=80-100%) | 4 (4=60-79%) | 5 (5=80-100%) | 5 (5=80-100%) | 4 (4=60-79%) | 5 (5=80-100%) | 5 (5=80-100%) | 5 (5=80-100%) | – | – | – | – | – | – | – | – | – | – |
